Conditions: amide bond; 28-membered ring

Compared with “[(3R)-N^2-(Benzyloxycarbonyl)-3-amino-L-phenylalanyl]-L-threonyl-L-leucyl-D-arginyl-L-isoleucyl-L-allothreonyl-glycyl-L-seryl C^1.9-N^3.1-lactam trifluoroacetate”, “[(3R)-N^2-(Benzyloxycarbonyl)-3-amino-L-phenylalanyl]-[(3R)-3-hydroxy-L-leucyl]-L-leucyl-D-arginyl-L-isoleucyl-L-allothreonyl-glycyl-[(3S)-3-hydroxy-L-asparaginyl]-L-alanine C^1.9-N^3.1-lactam trifluoroacetate” is higher in ring closure, isolated yield: 73% for the first, 93% for the second.

Compared with “[(3R)-N^2-(Benzyloxycarbonyl)-3-amino-L-phenylalanyl]-[(3R)-3-hydroxy-L-leucyl]-L-leucyl-D-arginyl-L-phenylalanlyl-L-allothreonyl-glycyl-L-seryl-L-serine C^1.9-N^3.1-lactam trifluoroacetate”, “[(3R)-N^2-(Benzyloxycarbonyl)-3-amino-L-phenylalanyl]-[(3R)-3-hydroxy-L-leucyl]-L-leucyl-D-arginyl-L-leucyl-L-allothreonyl-glycyl-L-seryl-L-serine C^1.9-N^3.1-lactam trifluoroacetate” is higher in ring closure, isolated yield: 76% for the first, 87% for the second.

First: [(3R)-N^2-(Benzyloxycarbonyl)-3-amino-L-phenylalanyl]-[(3R)-3-hydroxy-L-leucyl]-L-isoleucyl-D-arginyl-L-isoleucyl-L-allothreonyl-glycyl-L-seryl-L-serine C^1.9-N^3.1-lactam trifluoroacetate
Second: {(3R)-N^2-[(9H-Fluoren-9-ylmethoxy)carbonyl]-3-amino-L-phenylalanyl}-[(3R)-3-hydroxy-L-leucyl]-L-leucyl-D-arginyl-L-isoleucyl-L-allothreonyl-glycyl-[(2S)-2-amino-4-benzyloxycarbonylaminobutyryl]-L-serine C^1.9-N^3.1-lactam trifluoroacetate
The ring closure, isolated yield of the first is lower: 62% for the first, 66% for the second.

Going from “[(3R)-N^2-(Benzyloxycarbonyl)-3-amino-L-phenylalanyl]-[(3R)-3-hydroxy-L-leucyl]-L-norvalyl-D-arginyl-L-isoleucyl-L-allothreonyl-glycyl-L-seryl-L-serine C^1.9-N^3.1-lactam trifluoroacetate” to “[(3R)-N^2-(Benzyloxycarbonyl)-3-amino-L-phenylalanyl]-[(3R)-3-hydroxy-L-leucyl]-L-leucyl-D-arginyl-L-isoleucyl-L-valyl-glycyl-L-seryl-L-serine C^1.9-N^3.1-lactam trifluoroacetate”, the ring closure, isolated yield falls from 77% to 62%.

Compared with “[(3R)-N^2-(Benzyloxycarbonyl)-3-amino-L-phenylalanyl]-[(3R)-3-hydroxy-L-leucyl]-L-leucyl-D-arginyl-L-isoleucyl-L-allothreonyl-glycyl-glycyl-L-serine C^1.9-N^3.1-lactam trifluoroacetate”, “[(3R)-N^2-(Benzyloxycarbonyl)-3-amino-L-phenylalanyl]-[(3R)-3-hydroxy-L-leucyl]-[3-tertbutyl-L-alanyl]-D-arginyl-L-isoleucyl-L-allothreonyl-glycyl-L-seryl-L-serine C^1.9-N^3.1-lactam trifluoroacetate” is higher in ring closure, isolated yield: 38% for the first, 90% for the second.

Going from “{(3R)-N^2-[(9H-Fluoren-9-ylmethoxy)carbonyl]-3-amino-L-phenylalanyl}-[(3R)-3-hydroxy-L-leucyl]-L-leucyl-D-arginyl-L-isoleucyl-L-allothreonyl-glycyl-(N^5-benzyloxycarbonyl-L-ornithyl-L-serine C^1.9-N^3.1-lactam trifluoroacetate” to “[(3R)-N^2-(Benzyloxycarbonyl)-3-amino-L-phenylalanyl]-[(3R)-3-hydroxy-L-leucyl]-L-leucyl-D-arginyl-L-valyl-L-allothreonyl-glycyl-L-seryl-L-serine C^1.9-N^3.1-lactam trifluoroacetate”, the ring closure, isolated yield rises from 88% to 91%.

Going from “[(3R)-N^2-(Benzyloxycarbonyl)-3-amino-L-phenylalanyl]-[(3R)-3-hydroxy-L-leucyl]-L-norvalyl-D-arginyl-L-isoleucyl-L-allothreonyl-glycyl-L-alanyl-L-serine C^1.9-N^3.1-lactam trifluoroacetate” to “[(3R)-N^2-(Benzyloxycarbonyl)-3-amino-3-(pyridin-3-yl)-L-alanyl]-[(3R)-3-hydroxy-L-leucyl]-L-leucyl-D-arginyl-L-isoleucyl-L-allothreonyl-glycyl-[(3R)-3-hydroxy-L-asparaginyl]-L-serine C^1.9-N^3.1-lactam bis-trifluoroacetate”, the ring closure, isolated yield falls from 100% to 61%.

Going from “[(3R)-N^2-(Benzyloxycarbonyl)-3-amino-L-phenylalanyl]-[(3R)-3-hydroxy-L-leucyl]-L-leucyl-D-arginyl-[3-trimethylsilyl-L-alanlyl]-L-allothreonyl-glycyl-L-seryl-L-serine C^1.9-N^3.1-lactam trifluoroacetate” to “[(3R)-N^2-(Benzyloxycarbonyl)-3-amino-L-phenylalanyl]-[(3R)-3-hydroxy-L-leucyl]-L-leucyl-D-arginyl-L-isoleucyl-L-allothreonyl-D-seryl-L-seryl-L-serine C^1.9-N^3.1-lactam trifluoroacetate”, the ring closure, isolated yield rises from 51% to 93%.

Going from “{(3R)-N^2-[(9H-Fluoren-9-ylmethoxy)carbonyl]-3-amino-L-phenylalanyl}-[(3R)-3-hydroxy-L-leucyl]-L-leucyl-(N^6-benzyloxycarbonyl-D-lysyl)-L-isoleucyl-L-allothreonyl-glycyl-L-seryl-L-serine C^1.9-N^3.1-lactam trifluoroacetate” to “[(3R)-N^2-(Benzyloxycarbonyl)-3-amino-L-phenylalanyl]-[(3R)-3-hydroxy-L-leucyl]-L-valyl-D-arginyl-L-isoleucyl-L-allothreonyl-glycyl-L-seryl-L-serine C^1.9-N^3.1-lactam trifluoroacetate”, the ring closure, isolated yield rises from 78% to 100%.

“{(3R)-N^2-[(9H-Fluoren-9-ylmethoxy)carbonyl]-3-amino-L-phenylalanyl}-[(3R)-3-hydroxy-L-leucyl]-L-leucyl-(N^5-benzyloxycarbonyl-D-ornithyl)-L-isoleucyl-L-allothreonyl-glycyl-L-seryl-L-serine C^1.9-N^3.1-lactam trifluoroacetate” showed a ring closure, isolated yield of 48%.

Same assay, conditions: amide bond; 28-membered ring; HATU/NMM; DMF; 0.0 °C

Compared with “[(3R)-N^2-(Benzyloxycarbonyl)-3-amino-L-phenylalanyl]-[(3R)-3-hydroxy-L-leucyl]-L-leucyl-D-arginyl-L-isoleucyl-L-allothreonyl-glycyl-L-asparaginyl-L-serine C^1.9-N^3.1-lactam trifluoroacetate”, “[(3R)-N^2-(Benzyloxycarbonyl)-3-amino-L-phenylalanyl]-[(3R)-3-hydroxy-L-leucyl]-L-leucyl-D-arginyl-L-isoleucyl-L-allothreonyl-glycyl-L-alanyl-L-serine C^1.9-N^3.1-lactam trifluoroacetate” is higher in ring closure, isolated yield: 75% for the first, 77% for the second.

“N^2.1-(Benzyloxycarbonyl)-[(3R)-3-amino-O-methyl-L-tyrosyl)]-[(3R)-3-hydroxy-L-leucyl]-L-leucyl-D-arginyl-L-isoleucyl-L-allothreonyl-glycyl-[(3S)-3-hydroxy-L-asparaginyl]-L-serine C^1.9-N^3.1-lactam trifluoroacetate” showed a ring closure, isolated yield of 33%.
